In ChEMBL document CHEMBL2203155, “Structure-based discovery of C-2 substituted imidazo-pyrrolopyridine JAK1 inhibitors with improved selectivity over JAK2” (Bioorg Med Chem Lett, 2012):
pEC50, pIC50, pKi: −log10 of the molar value. In brackets after ≈: the same amount, converted by molar mass.

Tested on: not listed separately
Assay: Oral bioavailability in Sprague-Dawley rat at 2 mg/kg administered as suspension
Assay type: ADME, organism-based
Conditions: in vivo

| bioavailability [%] | SMILES |
| --- | --- |
| 79 | CS(=O)(=O)NCc1nc2cnc3[nH]ccc3c2n1[C@@H]1C[C@H]2CC[C@@H]1C2 |

Tested on: not listed separately
Assay: AUC in Sprague-Dawley rat at 2 mg/kg, po administered as suspension
Assay type: ADME, organism-based
Design: dose 2 mg/kg, route oral
Conditions: plasma

| AUC [nM·h] | SMILES |
| --- | --- |
| 2200 | CS(=O)(=O)NCc1nc2cnc3[nH]ccc3c2n1[C@@H]1C[C@H]2CC[C@@H]1C2 |

Tested on: not listed separately
Assay: Half life in Sprague-Dawley rat at 0.4 mg/kg, iv administered as bolus dose
Assay type: ADME, organism-based
Design: dose 0.4 mg/kg, route intravenous
Conditions: in vivo

| half-life [h] | SMILES |
| --- | --- |
| 1.5 | CS(=O)(=O)NCc1nc2cnc3[nH]ccc3c2n1[C@@H]1C[C@H]2CC[C@@H]1C2 |

Tested on: not listed separately
Assay: Volume of distribution at steady state in Sprague-Dawley rat at 0.4 mg/kg, iv administered as bolus dose
Assay type: ADME, organism-based
Design: dose 0.4 mg/kg, route intravenous
Conditions: in vivo, read-out: Vdss

| Vd [L/kg] | SMILES |
| --- | --- |
| 4 | CS(=O)(=O)NCc1nc2cnc3[nH]ccc3c2n1[C@@H]1C[C@H]2CC[C@@H]1C2 |

Tested on: not listed separately
Assay: Clearance in Sprague-Dawley rat at 0.4 mg/kg, iv administered as bolus dose
Assay type: ADME, organism-based
Design: dose 0.4 mg/kg, route intravenous
Conditions: in vivo

| clearance [L/h/kg] | SMILES |
| --- | --- |
| 1.98 | CS(=O)(=O)NCc1nc2cnc3[nH]ccc3c2n1[C@@H]1C[C@H]2CC[C@@H]1C2 |

Target: Macrophage colony-stimulating factor 1 receptor (Homo sapiens) (UniProt P07333)
Assay: Inhibition of CSF1R at 0.1 uM
Conditions: not given

| inhibition [%] | SMILES |
| --- | --- |
| > 50 | CS(=O)(=O)NCc1nc2cnc3[nH]ccc3c2n1[C@@H]1C[C@H]2CC[C@@H]1C2 |

Target: Leucine-rich repeat serine/threonine-protein kinase 2 (Homo sapiens) (UniProt Q5S007)
Assay: Inhibition of LRRK2 at 0.1 uM
Conditions: not given

Leucine-rich repeat serine/threonine-protein kinase 2 (Homo sapiens), sequence (Q5S007 whole entry): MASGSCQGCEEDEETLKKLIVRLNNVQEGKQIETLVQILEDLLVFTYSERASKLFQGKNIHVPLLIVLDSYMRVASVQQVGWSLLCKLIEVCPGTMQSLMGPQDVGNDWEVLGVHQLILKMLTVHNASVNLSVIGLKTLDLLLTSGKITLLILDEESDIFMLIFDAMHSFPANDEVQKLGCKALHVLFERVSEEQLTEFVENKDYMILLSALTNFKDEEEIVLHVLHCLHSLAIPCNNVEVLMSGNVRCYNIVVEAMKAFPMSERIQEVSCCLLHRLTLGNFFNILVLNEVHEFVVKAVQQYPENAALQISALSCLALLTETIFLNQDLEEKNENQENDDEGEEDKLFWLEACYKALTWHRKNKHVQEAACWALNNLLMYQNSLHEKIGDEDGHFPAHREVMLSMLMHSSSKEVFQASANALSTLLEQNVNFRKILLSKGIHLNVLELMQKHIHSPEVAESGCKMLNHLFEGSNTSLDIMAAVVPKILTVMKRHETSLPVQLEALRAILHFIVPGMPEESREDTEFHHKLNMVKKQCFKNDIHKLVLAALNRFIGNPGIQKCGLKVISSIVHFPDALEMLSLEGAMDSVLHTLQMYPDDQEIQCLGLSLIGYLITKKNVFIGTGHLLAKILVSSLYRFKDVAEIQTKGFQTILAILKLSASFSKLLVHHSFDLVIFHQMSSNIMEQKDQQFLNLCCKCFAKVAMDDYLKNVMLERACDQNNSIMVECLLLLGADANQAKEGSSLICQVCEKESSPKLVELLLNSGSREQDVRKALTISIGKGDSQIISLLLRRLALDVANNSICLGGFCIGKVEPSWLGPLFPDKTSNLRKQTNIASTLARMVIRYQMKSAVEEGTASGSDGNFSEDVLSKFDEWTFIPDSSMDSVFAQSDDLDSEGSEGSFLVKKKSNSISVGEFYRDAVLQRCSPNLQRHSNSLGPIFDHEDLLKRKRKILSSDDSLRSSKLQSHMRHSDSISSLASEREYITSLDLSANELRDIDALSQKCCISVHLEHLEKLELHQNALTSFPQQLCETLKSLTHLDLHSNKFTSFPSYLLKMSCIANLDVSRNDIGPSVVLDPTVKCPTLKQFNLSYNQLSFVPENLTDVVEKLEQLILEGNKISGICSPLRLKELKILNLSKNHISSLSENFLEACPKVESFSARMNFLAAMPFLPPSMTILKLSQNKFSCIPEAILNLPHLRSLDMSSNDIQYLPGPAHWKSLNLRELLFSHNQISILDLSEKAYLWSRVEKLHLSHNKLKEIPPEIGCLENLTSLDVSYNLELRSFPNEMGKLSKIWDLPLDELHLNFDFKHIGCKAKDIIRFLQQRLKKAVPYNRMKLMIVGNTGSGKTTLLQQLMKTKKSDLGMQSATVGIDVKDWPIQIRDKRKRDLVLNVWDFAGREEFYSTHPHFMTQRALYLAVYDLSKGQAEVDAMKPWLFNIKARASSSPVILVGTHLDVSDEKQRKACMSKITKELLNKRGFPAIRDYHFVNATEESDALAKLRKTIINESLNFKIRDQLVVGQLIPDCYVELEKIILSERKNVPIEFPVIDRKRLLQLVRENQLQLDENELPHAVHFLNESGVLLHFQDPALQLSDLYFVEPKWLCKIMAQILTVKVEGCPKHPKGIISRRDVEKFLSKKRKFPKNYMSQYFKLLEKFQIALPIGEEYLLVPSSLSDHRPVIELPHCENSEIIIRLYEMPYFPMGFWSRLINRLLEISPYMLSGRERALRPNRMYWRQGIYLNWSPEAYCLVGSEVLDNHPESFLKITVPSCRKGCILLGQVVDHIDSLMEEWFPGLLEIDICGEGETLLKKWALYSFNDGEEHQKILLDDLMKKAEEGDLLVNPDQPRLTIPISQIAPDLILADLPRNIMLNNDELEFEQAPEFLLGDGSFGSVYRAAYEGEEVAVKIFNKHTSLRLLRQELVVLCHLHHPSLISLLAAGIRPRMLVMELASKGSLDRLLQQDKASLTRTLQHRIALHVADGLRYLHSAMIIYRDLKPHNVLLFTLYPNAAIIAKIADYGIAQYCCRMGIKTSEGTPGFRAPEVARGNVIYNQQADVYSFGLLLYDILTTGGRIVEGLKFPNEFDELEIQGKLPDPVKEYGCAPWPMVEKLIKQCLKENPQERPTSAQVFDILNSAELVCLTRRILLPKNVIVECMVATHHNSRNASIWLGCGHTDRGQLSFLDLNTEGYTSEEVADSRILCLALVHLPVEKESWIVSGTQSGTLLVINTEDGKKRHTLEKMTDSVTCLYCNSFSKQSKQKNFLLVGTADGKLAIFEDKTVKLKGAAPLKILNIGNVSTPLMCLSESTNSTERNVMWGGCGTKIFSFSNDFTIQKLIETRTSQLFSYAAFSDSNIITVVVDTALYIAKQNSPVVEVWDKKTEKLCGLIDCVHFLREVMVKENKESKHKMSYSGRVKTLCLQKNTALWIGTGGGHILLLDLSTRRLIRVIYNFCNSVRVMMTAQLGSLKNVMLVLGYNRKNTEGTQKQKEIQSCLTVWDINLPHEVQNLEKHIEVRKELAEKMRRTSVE

| inhibition [%] | SMILES |
| --- | --- |
| > 50 | CS(=O)(=O)NCc1nc2cnc3[nH]ccc3c2n1[C@@H]1C[C@H]2CC[C@@H]1C2 |

Target: Cytochrome P450 2D6 (Homo sapiens, UniProt P10635)
Assay: Inhibition of CYP2D6
Assay type: ADME
Conditions: not given

Cytochrome P450 2D6, sequence (P10635 whole entry): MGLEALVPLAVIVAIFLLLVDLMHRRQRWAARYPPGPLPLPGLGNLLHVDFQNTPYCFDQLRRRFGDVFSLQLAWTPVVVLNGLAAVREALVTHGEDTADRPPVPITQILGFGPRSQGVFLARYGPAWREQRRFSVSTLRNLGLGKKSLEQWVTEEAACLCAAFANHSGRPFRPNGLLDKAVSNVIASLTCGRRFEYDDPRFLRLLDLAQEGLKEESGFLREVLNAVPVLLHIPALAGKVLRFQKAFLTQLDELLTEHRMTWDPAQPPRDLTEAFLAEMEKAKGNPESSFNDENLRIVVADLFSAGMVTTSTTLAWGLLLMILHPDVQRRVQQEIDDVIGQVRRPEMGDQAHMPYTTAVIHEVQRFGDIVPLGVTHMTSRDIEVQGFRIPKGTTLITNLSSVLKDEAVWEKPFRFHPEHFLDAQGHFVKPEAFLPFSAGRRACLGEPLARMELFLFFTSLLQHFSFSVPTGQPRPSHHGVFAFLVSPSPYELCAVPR

| pIC50 | SMILES |
| --- | --- |
| < 5.00 | CS(=O)(=O)NCc1nc2cnc3[nH]ccc3c2n1[C@@H]1C[C@H]2CC[C@@H]1C2 |

Target: Cytochrome P450 2C19 (Homo sapiens, UniProt P33261)
Assay: Inhibition of CYP2C19
Assay type: ADME
Conditions: not given

| pIC50 | SMILES |
| --- | --- |
| < 5.00 | CS(=O)(=O)NCc1nc2cnc3[nH]ccc3c2n1[C@@H]1C[C@H]2CC[C@@H]1C2 |

Target: Cytochrome P450 3A4 (Homo sapiens, UniProt P08684)
Assay: Inhibition of CYP3A4
Assay type: ADME
Conditions: not given

| pIC50 | SMILES |
| --- | --- |
| < 5.00 | CS(=O)(=O)NCc1nc2cnc3[nH]ccc3c2n1[C@@H]1C[C@H]2CC[C@@H]1C2 |

Target: Cytochrome P450 2C9 (Homo sapiens, UniProt P11712)
Assay: Inhibition of CYP2C9
Assay type: ADME
Conditions: not given

Cytochrome P450 2C9, sequence (P11712 whole entry): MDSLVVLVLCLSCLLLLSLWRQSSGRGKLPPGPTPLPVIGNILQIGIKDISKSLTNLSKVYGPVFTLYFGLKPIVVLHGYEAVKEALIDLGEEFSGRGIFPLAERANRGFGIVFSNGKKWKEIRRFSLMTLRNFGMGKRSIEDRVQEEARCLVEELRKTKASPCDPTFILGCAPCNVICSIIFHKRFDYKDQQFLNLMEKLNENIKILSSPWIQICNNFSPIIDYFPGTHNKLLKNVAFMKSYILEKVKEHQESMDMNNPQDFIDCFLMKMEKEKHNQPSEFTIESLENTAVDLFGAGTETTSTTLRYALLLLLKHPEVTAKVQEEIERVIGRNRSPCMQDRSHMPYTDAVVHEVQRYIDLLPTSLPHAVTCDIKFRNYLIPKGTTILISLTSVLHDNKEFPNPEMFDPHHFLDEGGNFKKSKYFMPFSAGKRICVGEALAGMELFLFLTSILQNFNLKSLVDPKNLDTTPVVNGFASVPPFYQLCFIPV

| pIC50 | SMILES |
| --- | --- |
| < 5.00 | CS(=O)(=O)NCc1nc2cnc3[nH]ccc3c2n1[C@@H]1C[C@H]2CC[C@@H]1C2 |

Target: T1, Cytochrome P450 1A2 (Homo sapiens, UniProt P05177)
T1 sequence (P05177 whole entry): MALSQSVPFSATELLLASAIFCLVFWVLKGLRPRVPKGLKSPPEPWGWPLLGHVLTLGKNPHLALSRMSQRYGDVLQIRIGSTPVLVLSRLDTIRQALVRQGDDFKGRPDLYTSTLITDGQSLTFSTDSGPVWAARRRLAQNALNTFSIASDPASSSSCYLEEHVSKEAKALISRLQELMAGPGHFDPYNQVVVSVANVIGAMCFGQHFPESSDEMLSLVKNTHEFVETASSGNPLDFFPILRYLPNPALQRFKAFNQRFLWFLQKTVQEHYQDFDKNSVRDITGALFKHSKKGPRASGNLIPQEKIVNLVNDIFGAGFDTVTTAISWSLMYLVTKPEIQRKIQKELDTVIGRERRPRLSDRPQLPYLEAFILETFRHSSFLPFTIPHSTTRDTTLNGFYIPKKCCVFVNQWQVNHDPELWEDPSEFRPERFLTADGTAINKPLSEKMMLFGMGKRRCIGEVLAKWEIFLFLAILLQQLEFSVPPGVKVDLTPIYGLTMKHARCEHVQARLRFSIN
Assay: Inhibition of CYP1A2
Assay type: ADME
Conditions: not given

| pIC50 | SMILES |
| --- | --- |
| < 5.00 | CS(=O)(=O)NCc1nc2cnc3[nH]ccc3c2n1[C@@H]1C[C@H]2CC[C@@H]1C2 |

Tested on: not listed separately
Assay: Apparent permeability from apical to basal side of MDCK cells
Assay type: ADME, cell-based, Canis lupus familiaris
Conditions: dog

| Papp A→B [nm/s] | SMILES |
| --- | --- |
| 82 | CS(=O)(=O)NCc1nc2cnc3[nH]ccc3c2n1[C@@H]1C[C@H]2CC[C@@H]1C2 |

Tested on: not listed separately
Assay: Aqueous solubility of the compound
Assay type: physicochemical
Conditions: buffer

| solubility [µM] | SMILES |
| --- | --- |
| 71 (≈ 25.5 µg/mL) | CS(=O)(=O)NCc1nc2cnc3[nH]ccc3c2n1[C@@H]1C[C@H]2CC[C@@H]1C2 |

Target: T2, Tyrosine-protein kinase JAK1 (Homo sapiens, UniProt P23458)
Assay type: cell-based, TF-1
Conditions: not given

T2 sequence (P23458 whole entry): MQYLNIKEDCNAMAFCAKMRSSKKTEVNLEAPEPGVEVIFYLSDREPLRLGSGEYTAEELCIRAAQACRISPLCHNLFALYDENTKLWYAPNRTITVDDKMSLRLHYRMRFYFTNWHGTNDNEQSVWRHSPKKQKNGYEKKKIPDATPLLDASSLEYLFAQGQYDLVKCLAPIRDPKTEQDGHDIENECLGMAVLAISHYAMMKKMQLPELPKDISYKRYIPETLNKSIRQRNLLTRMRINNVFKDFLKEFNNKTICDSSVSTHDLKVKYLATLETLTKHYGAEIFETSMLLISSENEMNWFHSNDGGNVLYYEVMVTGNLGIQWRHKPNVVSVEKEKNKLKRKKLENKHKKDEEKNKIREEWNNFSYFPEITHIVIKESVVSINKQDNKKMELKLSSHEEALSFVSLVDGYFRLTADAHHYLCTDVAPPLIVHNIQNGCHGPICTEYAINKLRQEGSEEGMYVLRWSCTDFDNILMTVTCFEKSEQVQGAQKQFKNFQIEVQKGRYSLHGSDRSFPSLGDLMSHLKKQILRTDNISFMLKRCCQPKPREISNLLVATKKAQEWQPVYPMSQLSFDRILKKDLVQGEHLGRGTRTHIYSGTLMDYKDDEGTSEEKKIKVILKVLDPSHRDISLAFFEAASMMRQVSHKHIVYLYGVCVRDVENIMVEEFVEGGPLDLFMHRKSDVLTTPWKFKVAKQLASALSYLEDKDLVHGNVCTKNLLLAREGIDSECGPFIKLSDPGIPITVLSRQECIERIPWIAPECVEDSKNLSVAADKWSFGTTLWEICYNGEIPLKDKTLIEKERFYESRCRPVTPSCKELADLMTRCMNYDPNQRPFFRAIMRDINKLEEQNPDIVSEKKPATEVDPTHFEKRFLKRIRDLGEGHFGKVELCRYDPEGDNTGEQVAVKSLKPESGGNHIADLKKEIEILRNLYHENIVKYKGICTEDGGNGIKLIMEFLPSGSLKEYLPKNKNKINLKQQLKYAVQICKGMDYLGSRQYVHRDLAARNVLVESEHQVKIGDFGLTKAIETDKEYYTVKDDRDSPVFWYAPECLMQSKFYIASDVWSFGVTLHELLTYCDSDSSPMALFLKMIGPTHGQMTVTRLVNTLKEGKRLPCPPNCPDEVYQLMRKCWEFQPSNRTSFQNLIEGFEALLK

| SMILES | pEC50 |
| --- | --- |
| CC(C)c1nc2cnc3[nH]ccc3c2n1C1CCN(CCC#N)CC1 | 6.39 |
| N#CCCN1CCC(n2c(CCC3CCCO3)nc3cnc4[nH]ccc4c32)CC1 (racemic) | 6.24 |
| N#CCCN1CCC(n2c(C3CCC3)nc3cnc4[nH]ccc4c32)CC1 | 6.37 |
| CC(=O)NCCc1nc2cnc3[nH]ccc3c2n1C1CCCCC1 | 6.68 |
| CC(C)CS(=O)(=O)NCc1nc2cnc3[nH]ccc3c2n1C1CCN(CCC#N)CC1 | 5.92 |
| N#CCCN1CCC(n2c(CCn3cccn3)nc3cnc4[nH]ccc4c32)CC1 | 5.74 |
| N#CCCN1CCC(n2c(C3CC3)nc3cnc4[nH]ccc4c32)CC1 | 6.80 |
| N#CCCN1CCC(n2c(CC3CCCO3)nc3cnc4[nH]ccc4c32)CC1 (racemic) | 5.89 |
| CC(=O)NCc1nc2cnc3[nH]ccc3c2n1C1CC2CCC1C2 (racemic) | 6.80 |
| Cn1ccc(CCc2nc3cnc4[nH]ccc4c3n2C2CCN(CCC#N)CC2)n1 | 5.59 |
| CS(=O)(=O)NCCc1nc2cnc3[nH]ccc3c2n1C1CCN(CCC#N)CC1 | < 5.22 |
| CC(=O)NCCc1nc2cnc3[nH]ccc3c2n1C1CCN(CCC#N)CC1 | < 5.19 |

Now from value to compound:

| pEC50 | SMILES |
| --- | --- |
| 5.38 | CS(=O)(=O)NCc1nc2cnc3[nH]ccc3c2n1C1CC2CCC1O2 (racemic) |
| < 5.42 | CC(=O)NCc1nc2cnc3[nH]ccc3c2n1C1CCN(CCC#N)CC1 |
| 5.82 | CC(=O)NCc1nc2cnc3[nH]ccc3c2n1C1CCN(CC(F)(F)F)CC1 |
| 5.70 | N#CCCN1CCC(n2c(CC3CCCC3)nc3cnc4[nH]ccc4c32)CC1 |
| 6.20 | CCOC(=O)NCc1nc2cnc3[nH]ccc3c2n1C1CCN(CCC#N)CC1 |
| 7.30 | CS(=O)(=O)NCCc1nc2cnc3[nH]ccc3c2n1C1CC2CCC1C2 (racemic) |
| 6.56 | CCCc1nc2cnc3[nH]ccc3c2n1C1CCN(CCC#N)CC1 |
| 5.59 | N#CCCN1CCC(n2c(CC3CCOCC3)nc3cnc4[nH]ccc4c32)CC1 |

Tested on: not listed separately
Assay: Selectivity ratio of Ki for JAK2 kinase domain to Ki for JAK1 kinase domain
Conditions: not given

| SMILES | Ratio Ki |
| --- | --- |
| CC(C)c1nc2cnc3[nH]ccc3c2n1C1CCN(CCC#N)CC1 | 4.2 |
| N#CCCN1CCC(n2c(CCC3CCCO3)nc3cnc4[nH]ccc4c32)CC1 (racemic) | 5.4 |
| N#CCCN1CCC(n2c(C3CCC3)nc3cnc4[nH]ccc4c32)CC1 | 3.6 |
| CC(C)CS(=O)(=O)NCc1nc2cnc3[nH]ccc3c2n1C1CCN(CCC#N)CC1 | 11 |
| N#CCCN1CCC(n2c(CCn3cccn3)nc3cnc4[nH]ccc4c32)CC1 | 2.6 |
| N#CCCN1CCC(n2c(C3CC3)nc3cnc4[nH]ccc4c32)CC1 | 1.8 |
| N#CCCN1CCC(n2c(CC3CCCO3)nc3cnc4[nH]ccc4c32)CC1 (racemic) | 1.5 |
| CC(=O)NCc1nc2cnc3[nH]ccc3c2n1C1CC2CCC1C2 (racemic) | 8.4 |
| Cn1ccc(CCc2nc3cnc4[nH]ccc4c3n2C2CCN(CCC#N)CC2)n1 | 7.6 |
| CS(=O)(=O)NCCc1nc2cnc3[nH]ccc3c2n1C1CCN(CCC#N)CC1 | 7 |
| CC(=O)NCCc1nc2cnc3[nH]ccc3c2n1C1CCN(CCC#N)CC1 | 5.6 |

Continued, values first:

| Ratio Ki | SMILES |
| --- | --- |
| 8 | CS(=O)(=O)NCc1nc2cnc3[nH]ccc3c2n1C1CC2CCC1O2 (racemic) |
| 5.4 | CC(=O)NCc1nc2cnc3[nH]ccc3c2n1C1CCN(CCC#N)CC1 |
| 6.7 | CC(=O)NCc1nc2cnc3[nH]ccc3c2n1C1CCN(CC(F)(F)F)CC1 |
| 4.5 | N#CCCN1CCC(n2c(CC3CCCC3)nc3cnc4[nH]ccc4c32)CC1 |
| 3.6 | CCOC(=O)NCc1nc2cnc3[nH]ccc3c2n1C1CCN(CCC#N)CC1 |
| 10 | CS(=O)(=O)NCCc1nc2cnc3[nH]ccc3c2n1C1CC2CCC1C2 (racemic) |
| 2.1 | CCCc1nc2cnc3[nH]ccc3c2n1C1CCN(CCC#N)CC1 |
| 4.8 | N#CCCN1CCC(n2c(CC3CCOCC3)nc3cnc4[nH]ccc4c32)CC1 |

Target: T2, Tyrosine-protein kinase JAK1
Conditions: not given
Remark: another data set of the same source

| SMILES | pKi |
| --- | --- |
| CC(C)c1nc2cnc3[nH]ccc3c2n1C1CCN(CCC#N)CC1 | 8.04 |
| N#CCCN1CCC(n2c(CCC3CCCO3)nc3cnc4[nH]ccc4c32)CC1 (racemic) | 8.06 |
| N#CCCN1CCC(n2c(C3CCC3)nc3cnc4[nH]ccc4c32)CC1 | 8.37 |
| CC(C)CS(=O)(=O)NCc1nc2cnc3[nH]ccc3c2n1C1CCN(CCC#N)CC1 | 8.27 |
| N#CCCN1CCC(n2c(CCn3cccn3)nc3cnc4[nH]ccc4c32)CC1 | 7.85 |
| N#CCCN1CCC(n2c(CC3CCCO3)nc3cnc4[nH]ccc4c32)CC1 (racemic) | 7.62 |
| CC(=O)NCc1nc2cnc3[nH]ccc3c2n1C1CC2CCC1C2 (racemic) | 8.52 |
| Cn1ccc(CCc2nc3cnc4[nH]ccc4c3n2C2CCN(CCC#N)CC2)n1 | 7.89 |
| CS(=O)(=O)NCCc1nc2cnc3[nH]ccc3c2n1C1CCN(CCC#N)CC1 | 8.77 |
| CC(=O)NCCc1nc2cnc3[nH]ccc3c2n1C1CCN(CCC#N)CC1 | 8.43 |

Further lines, results first:

| pKi | SMILES |
| --- | --- |
| 7.55 | CS(=O)(=O)NCc1nc2cnc3[nH]ccc3c2n1C1CC2CCC1O2 (racemic) |
| 7.92 | CC(=O)NCc1nc2cnc3[nH]ccc3c2n1C1CCN(CC(F)(F)F)CC1 |
| 7.80 | N#CCCN1CCC(n2c(CC3CCCC3)nc3cnc4[nH]ccc4c32)CC1 |
| 8.08 | CCOC(=O)NCc1nc2cnc3[nH]ccc3c2n1C1CCN(CCC#N)CC1 |
| 9.22 | CS(=O)(=O)NCCc1nc2cnc3[nH]ccc3c2n1C1CC2CCC1C2 (racemic) |
| 8.34 | CCCc1nc2cnc3[nH]ccc3c2n1C1CCN(CCC#N)CC1 |
| 7.37 | N#CCCN1CCC(n2c(CC3CCOCC3)nc3cnc4[nH]ccc4c32)CC1 |
